Bounds are passed on as bounds.

We go through one substance from patent US20040014209A1, “Compositions and methods for modulating cell differentiation” (priority 2002, published 2004).

The test system of assay [1] is posterior lateral plate (PLP) mesoderm explants. Put plainly: Cardiac induction in posterior lateral plate (PLP) mesoderm explants. In kind it is cell-based, chick. The note with it: PLP mesoderm cocultured with transfected COS cells; RT-PCR. From the text:
(§1) As crescent is expressed in anterior endoderm at approximately the stage expected for a heart-inducing factor, we investigated whether this Wnt inhibitor could induce the formation of heart muscle in explanted gastrula-stage posterior tissues. We made a replication-competent RCAS-crescent retrovirus and examined whether viral crescent expression can substitute for anterior endoderm in the cardiac induction assay. Explants of either PLP-mesoderm or PPS were infected with RCAS viruses encoding either crescent (RCAS-crescent) or alkaline phosphatase (RCAS-AP).
(§2) Eggs were incubated to the given stage (Hamburger and Hamilton 1951), and tissues were dissected with tungsten needles in Tyrodes solution using 1% agar dishes as a base. Serum-free medium containing insulin, transferrin, and selenium was adapted from Stern and Hauschka (1995) and supplemented with 2% chick embryo extract (Life Technologies). Virally infected explants were incubated on ice with viral supernatant diluted 1:1 with culture medium for 1-2 h, then cultured overnight in a sandwich of 35% collagen pads and overlaid with the above concentration of viral supernatant and medium containing 8 μg/mL polybrene. The following day, 0.25 mL of culture medium was added to each well. Anterior endoderm and COS cell cocultures were carried out on 2-μ pore size Nucleopore filters floating on culture medium. […]

Assay [2] relates to ventral marginal zone (VMZ) explants. Put plainly: VMZ explant assay: mRNA injection, cardiac-specific gene expression and beating. Type of assay: cell-based, Xenopus laevis. The protocol:
In a modification of this assay (FIG. 6A), we targeted mRNAs encoding Wnt and BMP antagonists to VMZ tissue by microinjection into the equatorial region of both ventral blastomeres of four-cell stage embryos. VMZ explants were isolated at stage 10, cultured, and assayed at stage 30 by RT-PCR for cardiac-specific gene expression.
Embryos were fertilized in vitro, dejellied in 2% cysteine-HCl (pH 7.8), and maintained in 0.1×MMR. Explant dissections were performed in 0.75×MMR using an eyelash knife. Embryos were staged according to Nieuwkoop and Faber (1994).
Marginal zone explants were dissected at stage 10. Those explants to be examined by RT-PCR for expression of heart field marker- and heart muscle-specific genes were cultured until sibling embryos were stage 30. In situ hybridization was performed on explants cultured to the equivalent of stage 23 or stage 30. Explants to be scored for formation of beating hearts were maintained until the equivalent of stage 41.
mRNA was transcribed from pSP35-chd, pSP64-ngn, pCS2-DKK1, pCS2-Crescent, pCS2-GSK3, pCS2-WIF, pCS2-dnXwnt8, pCS2-szl, and pXT7-FrzA using the SP6 and T7 mMessage mMachine kits (Ambion). All cDNAs used encode Xenopus proteins except those for Wnt1 and crescent, which encode chick isoforms. The Xenopus form of crescent was identified while this manuscript was in preparation (Pfeffer et al. 1997; Pera and De Robertis 2000; Shibata et al. 2000) and functions identically to the chick isoform in our assays. Xenopus and chick Crescent share 88% amino acid positional identity within the cysteine-rich domain. Injections were performed in 3% Ficoll in 1×MMR. Embryos were injected equatorially into the two ventral or two dorsal blastomeres at the four-cell stage to target expression to the ventral or dorsal marginal zone. The amount of mRNA injected is given in the text. For plasmid cDNA injections, 75 pg of pCS2-Xwnt3A, pCS2-Xwnt5A, and pCSKA-Xwnt8 and 100 pg of pCS2-cWnt11 supercoiled plasmid constructs were injected.
RT-PCR was performed as described in Schneider and Mercola (1999). Twenty-five cycles were performed at an annealing temperature of 55° C., unless otherwise noted. Expression of EF1α was used as a positive control for the reverse transcriptase reaction. The following additional primers were used: XNkx2.5+, […] (SEQ ID NO: 7); XNkx2.5−, […] (SEQ ID NO: 8); M. actin+, […] (SEQ ID NO: 9); M. actin−, […] (SEQ ID NO: 10) (22 cycles); TnIc+, […] (SEQ ID NO: 11); TnIc−, […] (SEQ ID NO: 12); MHCα+, […] GTTCCG (SEQ ID NO: 13); MHCα−, […] (SEQ ID NO: 14); Tbx5+, […] (SEQ ID NO: 15); Tbx5−, […] (SEQ ID NO: 16) (27 cycles); XNkx2.10+, […] (SEQ ID NO: 17); and XNkx2.10−, […] (SEQ ID NO: 18) (59° C., 28 cycles).
A secreted version of the C-terminal fragment was made by fusing the secretory region of human Dkk1 to the C-terminal region cysteine rich region, as described above. This protein is referred to as “C1.” Briefly, the HindIII-Asp718 C-terminal fragment of human Dkk1 (SEQ ID NO: 1) was ligated to the sequence encoding the secretory signal of Dkk1 and cloned into a vector permitting in vitro transcription. As a control, full length Dkk1 was used. RNA was prepared in vitro from the vector as described above. The RNA encoded a polypeptide comprising amino acids 158-266 of SEQ ID NO: 2. The RNA was then injected into noncardiogenic frog embryonic mesoderm, as described above and in Schneider and Mercola (2001) Genes & Dev. 15:304.

The test system of assay [3] is posterior primitive streak (PPS) explants. Nature of the assay: Cardiac induction in posterior primitive streak (PPS) explants. The note with it: PPS cocultured with transfected COS cells; RT-PCR. Type of assay: cell-based, chick.
Description: as §1, §2

In the case of dkk-1, the “Cardiac gene expression (Nkx-2.5, CMHC1)” value in assay [1] was “induced both Nkx2.5 and CMHC1”; in assay [3], “failed to activate cardiac gene expression”. Moreover, the “Explants with rhythmic beating” value in assay [2] (900 pg dkk-1, 1.5 ng crescent or 1.5 ng frzb mRNA, scored at stage 41) came out at 73.2%. In assay [2] (VMZ explants cultured to stage 41), the “Explants with induced cement glands” value was found to be 90.7%. Besides, the “mRNA dose inducing cardiac-specific gene expression” value in assay [2] (VMZ explants, RT-PCR at stage 30) was no less than 450 pg. Moreover, the “Heart-specific gene expression (TnIc, MHCα)” value in assay [2] (mRNA injected ventrally at four-cell stage, VMZ explants, RT-PCR stage 30) was “strong expression of TnIc and MHCα”.
